Test results: article PMC7887271, “Fast acting allosteric phosphofructokinase inhibitors block trypanosome glycolysis and cure acute African trypanosomiasis in mice” (Nature Communications, 2021)
Read-outs that look alike come from different tables or passages of the source.

Experiments:
[1] = Pharmacokinetic studies in mice (IV and PO); format: in vivo, female CD-1 mice; conditions: female, CD-1, plasma, mouse; for AUC(0-inf): read-out: AUC (infinity)
Protocol: PK parameters for the lead compounds were determined using three mice per data point (Supplementary Methods 6.1).
Blood samples were collected from terminal cardiac puncture at 0.08 (IV only), 0.25, 0.5, 1 (PO only), 2, 4, 8 and 24 hour time points. The whole blood was centrifuged to obtain plasma. Brains were also collected following cardiac perfusion from both sets of animals at 2 hours. Analysis of the biological samples was carried out by the company Selcia. Plasma proteins were precipitated by addition of PBS (1 volume) followed by 3 volumes of acetonitrile containing internal standard (verapamil). Following filtration through a protein precipitation plate the eluent was dried under nitrogen and re-suspended in mobile phase prior to analysis. Individual brains were homogenised in PBS and diluted to 10% w/v and divided into aliquots consisting of brain homogenate (1 volume, 0.3 ml) and 3 volumes (0.9 ml) of acetonitrile containing internal standard. Samples were centrifuged and supernatants removed and taken through a protein precipitation plate alongside an appropriate standard. Eluents were dried under nitrogen and re-suspended in mobile phase prior to analysis. Eluents were analysed by LC-MS/MS using a Phenomenex Gemini NX column (C18,30 x 2.1 mm, 3 micron). Analysis of the data was carried out using PK solutions software.

[2] = Tolerance studies and plasma levels after multiple oral dosing; format: in vivo; conditions: mice, oral
Protocol: All efficacy studies were carried out using CD-1 mice in accordance with the United Kingdom Animals (Scientific Procedures) Act (1986) under Home Office regulations. Studies were performed in SPF facilities at the University of Edinburgh under licence PPL 70/8102 and at the University of Glasgow under PPL 60/4442. The experiments were approved by the local ethics committees of the respective universities. Dosing regimens used in efficacy studies were first tested for tolerance in female CD-1 mice (University of Edinburgh; 6–8 weeks old). Animals were dosed orally by gavage with CTCB compounds following the dosing regimen for each individual experiment (n = 5; Supplementary Methods 6.2).
Dosing regimens used in efficacy studies were first tested for tolerance in female CD-1 mice (University of Edinburgh; 6-8 weeks old). Animals were dosed orally by gavage with CTCB compounds following the dosing regimen for each individual experiment (n=5) as indicated. Compounds were administered in a mixture containing Cremophor EL: EtOH: D-PBS (30:10:60 v/v). Animals were monitored for up to 8 hours post-dosing. On the final day of dosing, 2 hours after the final dose, whole blood was harvested from three mice via cardiac puncture, under gaseous isoflurane anaesthesia, to obtain plasma for analyses. The remaining two mice were monitored for several days post dosing. To avoid coagulation, 100 μl of 2% sodium citrate was utilised in the syringe during the procedure and blood samples subsequently transferred to heparin coated microtubules. Blood samples were centrifuged at 800 x g for 10 minutes at room temperature. The supernatant containing the plasma was transferred to a fresh tube for determination of compound levels and further PK analysis.

HepG2 cells = assay: HepG2 cytotoxicity assay; format: cell-based, human
Protocol: (§1) A HepG2 cytotoxicity assay was used to determine a cellular selectivity index. HepG2 cells were seeded into 96-well plates in EMEM medium. Compounds were assessed for their effect upon cellular viability (Supplementary Methods 5.1). Inhibition of CYP450 was determined using kits from BD Biosciences (Supplementary Methods 5.2). Metabolic stability was determined using mouse […] tested at a single concentration of 5 µM. Plasma protein binding was determined using mouse and human plasma at a single concentration of 10 µM (Supplementary Methods 5.4). All PK studies in mice were carried out by Pharmidex (Supplementary Methods 6.1).
To determine a cellular selectivity index, a HepG2 Cytotoxicity Assay was used. HepG2 cells (a human hepatocyte carcinoma cell line) were seeded into 96 well plates in EMEM media. Compounds were assessed for their effect upon cellular viability (6 point dose response curves). After 72h the numbers of viable cells were detected using Promega CellTitreGlo reagent to measure ATP using the luciferase/luciferin detection system. The selectivity index is calculated as the EC50 in the HepG2 assay divided by the EC50 determined in the T. b. brucei parasite killing assay.

[3] = Metabolic stability, human liver microsomes; format: in vitro ADME; conditions: read-out: HLM Clint
Protocol: as §1
(§2) Compounds were tested for their metabolic stability using mouse and human liver microsomes (MLM and HLM). The compounds were tested at a single concentration of 5 µM. The samples were crashed with acetonitrile and put through protein precipitation plates. The eluent was analysed by LC/MS or LC/MS/MS.

Human hERG = Human hERG (Homo sapiens, UniProt Q12809); assay: Human hERG inhibition
Excerpt: Methods are described in Supplementary Methods 5 and 6. Enzyme assay results are means ± SD in multiple assays. ADME results are averages of n = 2 or 3 measurements in individual assays.

[4] = Plasma protein binding, mouse plasma; format: in vitro ADME; conditions: 10 µM, equilibrium dialysis, read-out: Mouse plasma protein binding fu(%)
Protocol: as §1
(§3) Compounds were tested for protein binding using mouse and human plasma at a single concentration of 10 µM and measured by equilibrium dialysis between plasma and buffer. The amount of parent was determined on both sides of the membrane after incubating for 4 hours at 37 °C. The samples were crashed with acetonitrile and put through protein precipitation plates. The eluent was analysed by LC/MS or LC/MS/MS. Output was percentage bound.

[5] = Plasma protein binding, human plasma; format: in vitro ADME; conditions: equilibrium dialysis, read-out: Human plasma protein binding fu(%)
Protocol: as §1, §3

[6] = Metabolic stability, mouse liver microsomes; format: in vitro ADME; conditions: read-out: MLM Clint
Protocol: as §1, §2

Human hERG, sequence (Q12809 whole entry): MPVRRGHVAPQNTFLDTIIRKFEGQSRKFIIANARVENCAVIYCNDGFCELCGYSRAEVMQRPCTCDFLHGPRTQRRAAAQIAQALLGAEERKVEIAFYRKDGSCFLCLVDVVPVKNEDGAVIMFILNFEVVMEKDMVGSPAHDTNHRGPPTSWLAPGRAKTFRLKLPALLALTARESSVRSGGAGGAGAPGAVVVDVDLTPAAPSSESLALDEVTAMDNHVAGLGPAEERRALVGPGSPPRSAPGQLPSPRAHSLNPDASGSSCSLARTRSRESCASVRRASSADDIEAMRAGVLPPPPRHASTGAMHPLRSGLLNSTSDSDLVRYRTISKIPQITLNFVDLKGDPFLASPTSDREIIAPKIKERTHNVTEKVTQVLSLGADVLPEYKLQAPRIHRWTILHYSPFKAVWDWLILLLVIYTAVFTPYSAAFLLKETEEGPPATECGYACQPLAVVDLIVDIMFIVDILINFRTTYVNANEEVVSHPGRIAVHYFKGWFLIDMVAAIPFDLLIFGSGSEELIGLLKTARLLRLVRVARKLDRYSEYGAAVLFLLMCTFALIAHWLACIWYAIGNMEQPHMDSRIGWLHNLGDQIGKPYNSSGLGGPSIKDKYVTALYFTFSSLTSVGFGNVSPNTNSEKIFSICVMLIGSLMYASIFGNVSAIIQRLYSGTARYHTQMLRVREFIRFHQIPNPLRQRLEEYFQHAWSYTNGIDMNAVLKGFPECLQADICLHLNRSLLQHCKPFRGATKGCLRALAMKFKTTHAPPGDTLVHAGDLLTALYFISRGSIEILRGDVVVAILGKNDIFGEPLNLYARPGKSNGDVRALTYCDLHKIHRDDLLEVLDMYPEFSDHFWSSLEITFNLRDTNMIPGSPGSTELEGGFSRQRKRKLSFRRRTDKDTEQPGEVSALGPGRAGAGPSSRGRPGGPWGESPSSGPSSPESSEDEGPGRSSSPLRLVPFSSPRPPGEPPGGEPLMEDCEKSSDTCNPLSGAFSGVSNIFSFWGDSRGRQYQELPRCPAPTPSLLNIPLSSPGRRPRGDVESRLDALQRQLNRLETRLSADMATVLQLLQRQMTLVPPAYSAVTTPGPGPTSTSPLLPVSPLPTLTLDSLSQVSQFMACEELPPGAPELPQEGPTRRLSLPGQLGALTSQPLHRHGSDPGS

Question: Which results are given for CN(C)CCn1ccc2c(ccn2Cc2ccc(F)c(Br)c2)c1=O [CTCB-508, 1-[(3-Bromo-4-fluorophenyl)methyl]-5-[2-(dimethylamino)ethyl] pyrrolo[3,2-c]pyridin-4-one]?
Answer: AUC(0-inf) ([1]; IV 1 mg kg^−1): 349 ng·h/mL; clearance ([1]; IV 1 mg kg^−1, read-out: CL/kg (converted)): 45 mL/min/kg; half-life ([1]; IV 1 mg kg^−1, read-out: Elimination t1/2 (converted)): 0.7 h; Vd ([1]; IV 1 mg kg^−1, read-out: Vd (area)): 2.9 L/kg; Cmax ([1]; PO 10 mg kg^−1): 1330 ng/mL; Tmax ([1]; PO 10 mg kg^−1): 2 h; AUC(0-inf) ([1]; PO 10 mg kg^−1): 4170 ng·h/mL; bioavailability ([1]; PO 10 mg kg^−1 vs IV 1 mg kg^−1, read-out: Bioavailability (F%)): 119%; tolerance of high doses [2]: well tolerated; Selectivity (HepG2 cells; EC50 HepG2 divided by EC50 T. b. brucei parasite killing): 111; EC50 (HepG2 cells; Homo sapiens, HepG2, 72 h, CellTitreGlo): 33.4 µM; microsomal CLint at 5 µM [3]: < 8.6 µL/min/mg; IC50 (Human hERG): 4.75 µM; fraction unbound at 4 h, 10 µM [4]: 0.18; fraction unbound at 4 h, 10 µM [5]: 0.21; microsomal CLint at 5 µM [6]: 56 µL/min/mg
